The data set can be described thus: solvent given as SMILES.

On to `Nc1nc2ccc(Br)cc2s1`, for which the absorption maximum stood at 269 nm (in CC#N) and 268 nm (in ClCCl).

On to `Cc1ccc(N(c2ccccc2)c2ccc3ccc4c(N(c5ccccc5)c5ccc(C)cc5)ccc5ccc2c3c54)cc1`, for which the absorption maximum (in ClCCl) is 428 nm.

In the case of `Oc1ccc2ccccc2c1/C=N/CC/N=C/c1c(O)ccc2ccccc12`, the absorption maximum (in CC#N) amounted to 408 nm.

In turn, `CC1=CC(C)=[N+]2C1=C(c1ccc(I)cc1)c1c(C)cc(C)n1[B-]2(Oc1ccccc1)Oc1ccccc1` registered an absorption maximum (in ClC(Cl)Cl) of 506 nm.

In the case of `O=C(O)COc1cccc(-c2c3nc(cc4ccc([nH]4)c(-c4cccc(OCC(=O)O)c4)c4nc(cc5ccc2[nH]5)CC4)C=C3)c1`, for the setting “in CS(C)=O”, the absorption maximum came to 644 nm.

The compound `N#C/C(=C\c1ccc(/C=C/c2ccc(N(c3ccccc3)c3ccccc3)cc2)s1)C(=O)O` showed an absorption maximum (in ClCCl) of 490 nm.

Take `CCOC(=O)c1sc2nc(C)c(CC)c(C#N)c2c1N`: for the setting “in c1ccccc1”, the absorption maximum worked out at 412 nm.

For `CCn1c2ccsc2c2c3nsnc3c3c4sccc4n(CC)c3c21`, the absorption maximum is recorded as 436 nm (in C1CCOC1); 433 nm (in CCOC(C)=O); 441 nm (in CN(C)C=O); 432 nm (in Cc1ccccc1); 436 nm (in ClCCl).

On to `CNCCCC1c2ccccc2C=Cc2ccccc21`, for which the absorption maximum (in CC#N) is 293 nm, the absorption maximum (in CO) is on record as 293 nm and the absorption maximum (in O) amounted to 292 nm.

With `COc1ccc(-c2c3cc4cc(C)sc4cc3c(-c3ccc(OC)cc3)c3cc4cc(C)sc4cc23)cc1`, the absorption maximum (in ClCCl) turned out to be 500 nm.

Regarding `Cc1ccc(N(CC(=O)[O-])CC(=O)[O-])cc1OCCOc1cc(-c2cc3ccc(C(=O)[O-])cc3[nH]2)ccc1N(CC(=O)[O-])CC(=O)[O-]`, the absorption maximum (in O) stood at 349 nm.

Consider `N#Cc1ccc(-n2cccc2)cc1`, for which the absorption maximum was 287 nm (in C1CCOC1); 287 nm (in CC#N); 287 nm (in CCCCCC); 287 nm (in CCOCC); 287 nm (in ClCCl).

On to `O=S(=O)(c1ccc(-c2ccc(-c3nc4c5ccccc5c5ccccc5c4n3-c3ccccc3)cc2)cc1)c1ccc(-c2ccc(-c3nc4c5ccccc5c5ccccc5c4n3-c3ccccc3)cc2)cc1`, for which the absorption maximum stood at 368 nm (in C1CCOC1); 368 nm (in CC#N); 368 nm (in CC(C)=O); 368 nm (in CC(C)OC(C)C); 368 nm (in CCCCCC); 368 nm (in CCCCOCCCC). The absorption maximum is, setting by setting: (in CCN(CC)CC) 368 nm; (in CCOC(C)=O) 368 nm; (in CCOCC) 368 nm; (in CN(C)C=O) 368 nm; (in ClC(Cl)Cl) 368 nm; (in ClCCl) 368 nm.

In the case of `CCCCC1(CCCC)c2cc(C#Cc3ccc(C=C(c4ccccc4)c4ccccc4)cc3)ccc2-c2ccc(C#Cc3ccc(C=C(c4ccccc4)c4ccccc4)cc3)cc21`, the absorption maximum (in C1CCOC1) was 376 nm.

The compound `c1ccc(C(=C(c2ccccc2)c2ccc(-c3nc4c(-c5ccc(C(=C(c6ccccc6)c6ccccc6)c6ccccc6)cc5)sc(-c5ccc(C(=C(c6ccccc6)c6ccccc6)c6ccccc6)cc5)c4nc3-c3ccc(C(=C(c4ccccc4)c4ccccc4)c4ccccc4)cc3)cc2)c2ccccc2)cc1` showed an absorption maximum (in Cc1ccccc1) of 538 nm and an absorption maximum (in ClCCl) of 520 nm.

Turning to `Cn1c2cc(N3CCCCC3)c(F)cc2c(=O)c2cc(F)c(N3CCCCC3)cc21`, the absorption maximum (in CCO) worked out at 368 nm.

For the compound `CCN1CCCc2cc3c(cc21)Oc1cc2c(cc1=N3)C(CS(=O)(=O)[O-])CC(C)(C)[N+]=2CCCC(=O)[O-]` (stereo not given), the absorption maximum (in O) was 655 nm.

In the case of `COc1ccc(-c2cc3c(ccc4sc5ccc6sc(-c7ccc(C(C)=O)cc7)cc6c5c43)s2)cc1`, the absorption maximum (in ClCCl) came out at 380 nm.

Regarding `COc1ccc(C2=CC3=C(c4c(C)cc(C)cc4C)c4cc(-c5ccc(OC)cc5)c(-c5ccc(OC)cc5)n4[B-](F)(F)[N+]3=C2c2ccc(OC)cc2)cc1`, the absorption maximum is, setting by setting: (in C1CCCCC1) 621 nm; (in C1CCOC1) 621 nm; (in CC#N) 608 nm; (in Cc1ccccc1) 625 nm; (in ClCCl) 616 nm.

As to `CCC1(CC)c2cc(C=O)ccc2-c2ccc(N(C)C)cc21`, the absorption maximum is reported as 385 nm (in C1CCCCC1); 385 nm (in CC#N); 388 nm (in CCO); 379 nm (in CCOCC); 395 nm (in CS(C)=O); 392 nm (in ClCCl). Where the note is “in c1ccccc1”, the absorption maximum came out at 388 nm.

Turning to `COc1cc(/C=C/CO)ccc1O`, where the note is “in O”, the absorption maximum is 295 nm.

In turn, `CN(C)c1cc2sc3cc(N(C)C)c(F)cc3c(=O)c2cc1F` gave an absorption maximum (in CCO) of 382 nm.

In turn, `COc1ccccc1-c1nc2c3ccccc3c3ccccc3c2o1` gave an absorption maximum (in Cc1ccccc1) of 364 nm.

As to `CC(C)(C)c1ccc2c(c1)c1cc(C(C)(C)C)ccc1n2-c1ccc(-c2nc(-c3ccc(-n4c5ccc(C(C)(C)C)cc5c5cc(C(C)(C)C)ccc54)cc3)nc(-c3ccc(P(=O)(c4ccccc4)c4ccccc4)cc3)n2)cc1`, the absorption maximum reads like this: (in C1CCOC1) 386.93 nm; (in CC#N) 380.02 nm; (in CC(C)=O) 380.02 nm; (in CN(C)C=O) 384.45 nm; (in Cc1ccccc1) 393.2 nm; (in ClC(Cl)Cl) 430.07 nm. Under “in ClCCl”, this compound had an absorption maximum of 382.72 nm.

For the setting “in O”, `NC(=O)C1=CN([C@H]2C[C@H](O)[C@@H](COP(=O)([O-])OP(=O)([O-])OC[C@H]3O[C@@H](n4cnc5c(N)ncnc54)C[C@@H]3O)O2)C=CC1` yielded an absorption maximum of 350 nm.

For `CC(C)(C)c1ccc(C2=C(c3ccc(C(C)(C)C)cc3)[Si](c3ccccc3)(c3ccccc3)c3ccccc32)cc1`, where the note is “in C1CCOC1”, the absorption maximum was 341 nm.

Consider `CCCCCCC(CCCCCC)N1C(=O)c2cccc3c(-c4ccc(-c5ccc(OC)cc5)cc4)ccc(c23)C1=O`, for which the absorption maximum runs as follows: (in CCCCCC) 354 nm; (in CCCCCCCCCCCCCC) 357.6 nm; (in CCCCCCCCCCCO) 369.4 nm; (in CCCCO) 366 nm; (in CN(C)C=O) 369 nm; (in Cc1ccccc1) 364.8 nm. For the same compound, the absorption maximum (in ClC(Cl)Cl) is reported as 364.4 nm.

Regarding `OCc1ccc2c3cccc4cccc(c5cccc1c52)c43`, under “in CCO”, the absorption maximum was 439 nm.

In turn, `CCCC1(CCC)c2cc(C#N)ccc2-c2ccc(C#N)cc21` gave an absorption maximum (in C1CCCCC1) of 319 nm.

For the compound `CCCCCCCCN1c2ccccc2Sc2cc(/C=C/c3ccc(N(c4ccc(/C=C/c5ccc6c(c5)Sc5ccccc5N6CCCCCCCC)cc4)c4ccc(/C=C/c5ccc(/C=C/c6ccc(N(c7ccc(/C=C/c8ccc(N(c9ccccc9)c9ccccc9)cc8)cc7)c7ccc(/C=C/c8ccc(N(c9ccccc9)c9ccccc9)cc8)cc7)cc6)c6nsnc56)cc4)cc3)ccc21`, the absorption maximum is 534 nm (in C1CCOC1); 524 nm (in CCOC(C)=O); 528 nm (in CN(C)C=O); 533 nm (in Cc1ccccc1); 534 nm (in ClC(Cl)Cl); 533 nm (in ClCCl).

Compound `CN(C)c1ccc(-c2nc(-c3ccccc3)n3ccccc23)cc1` had an absorption maximum (in ClC(Cl)Cl) of 314 nm.

The compound `Cc1cc2c3ccccc3n(C)c2c2c1c1ccccc1n2C` showed an absorption maximum (in ClCCl) of 329 nm.

The compound `CCCCCCCCCCCCCCCCn1c(-c2cc(-c3nc4ccc(C)cc4n3CCCCCCCCCCCCCCCC)cc(-c3nc4ccc(C)cc4n3CCCCCCCCCCCCCCCC)c2)nc2ccc(C)cc21` displayed an absorption maximum (in ClCCl) of 306 nm.

Regarding `NNC(=O)N1C(=O)c2cc(S(=O)(=O)[O-])cc3c(N)c(S(=O)(=O)[O-])cc(c23)C1=O`, under “in O”, the absorption maximum was 458 nm.

As to `C1=C(c2ccccc2)S[C@]23C1=C(c1ccccc1)[C@H](c1ccccc12)c1ccccc13`, the absorption maximum (in ClCCl) is reported as 378 nm.

As to `COc1ccc(C2=[N+]3C(=Nc4c(-c5ccccc5-c5ccc(C(C)(C)C)cc5)cc(-c5ccc(OC)cc5)n4[B-]3(F)F)c3c2c2cc(C(C)(C)C)ccc2c2ccccc32)cc1`, the absorption maximum (in Cc1ccccc1) amounted to 701 nm.

Consider `C/C=C/C=C/C1=NC(=C\c2ccc([O-])cc2)/C(=O)N1C`, for which, for the setting “in O”, the absorption maximum is 482 nm.

For the compound `COCCC1=Cc2nc1ccc1[nH]c(cc1CCOC)c1nc(ccc3[nH]c2cc3CCO)C(CCOC)=C1`, the absorption maximum (in Cc1ccccc1) is 637 nm.

On to `OC1(c2ccc(-c3cccs3)s2)CCCCC1`, for which the absorption maximum (in C1CCOC1) turned out to be 312 nm; the absorption maximum (in CC#N) was 309 nm; the absorption maximum (in CCCCCC) is recorded as 308 nm; the absorption maximum (in CCO) is recorded as 309 nm; the absorption maximum (in OCCOCCO) is reported as 317 nm; the absorption maximum (in c1ccncc1) stood at 315 nm.

Regarding `CCN1/C(=C\c2c(-c3ccc(N(C)C)cc3)c(=O)c2=O)C=Cc2ccccc21`, the absorption maximum came to 359 nm (in C1CCCCC1), 362 nm (in Cc1ccccc1) and 509 nm (in ClCCl).

In turn, `CCCCn1c2ccc(-c3ccc(C(F)(F)F)cc3)cc2c2ccc3c4cc(-c5ccc(C(F)(F)F)cc5)ccc4n(CCCC)c3c21` returned an absorption maximum (in ClC(Cl)Cl) of 301 nm.

For the compound `CCCCCCOc1ccc2oc3c(c2c1)=CC1=C(c2ccccc2C)c2cc4c5cc(OCCCCCC)ccc5oc4n2[B-](F)(F)[N+]=31`, the absorption maximum is reported as 592 nm (in C1CCCCC1), 587 nm (in CCOC(C)=O) and 585 nm (in CO).

For `CC(C)[Si](C#Cc1c2ccccc2c(C#C[Si](C(C)C)(C(C)C)C(C)C)c2nc3c(ccc4ccccc43)nc12)(C(C)C)C(C)C`, the absorption maximum (in CCCCCC) is 544 nm.

Regarding `CN1C(=CC2=C([O-])C(=CC3=[N+](C)c4ccc(Cl)cc4C3(C)C)C2=O)C(C)(C)c2cc(Cl)ccc21`, the absorption maximum came to 635 nm (in CO), 641 nm (in ClC(Cl)Cl) and 641 nm (in ClCCl).

These data come from the Deep4Chem optical property database.
